{"source": "ChEMBL document CHEMBL1127439", "about": "“Structure-activity relationship studies of central nervous system agents. 13. 4-[3-(Benzotriazol-1-yl)propyl]-1-(2-methoxyphenyl)piperazine, a new putative 5-HT1A receptor antagonist, and its analogs” (J Med Chem, 1994)", "key": {"Mus musculus [1]": {"system": "Mus musculus", "assay": "Effect on 8-OH-DPAT-induced hypothermia in mice (5 mg/kg) at intraperitoneal dosage of 8 mg/kg of compound after 60 mins", "type": "functional"}, "Mus musculus [2]": {"system": "Mus musculus", "assay": "Effect on 8-OH-DPAT-induced hypothermia in mice (5 mg/kg) at intraperitoneal dosage of 4 mg/kg of compound after 45 mins", "type": "functional"}, "Mus musculus [3]": {"system": "Mus musculus", "assay": "Effect on 8-OH-DPAT-induced hypothermia in mice (5 mg/kg) at intraperitoneal dosage of 1 mg/kg of compound after 30 mins", "type": "functional"}, "Mus musculus [4]": {"system": "Mus musculus", "assay": "Effect on body temperature in mice at intraperitoneal dosage of 8 mg/kg, (compound administered 30 min before the test) after 75 min", "type": "functional"}, "Mus musculus [5]": {"system": "Mus musculus", "assay": "Effect on body temperature in mice at intraperitoneal dosage of 8 mg/kg, (compound administered 30 min before the test) after 60 min", "type": "functional"}, "Rattus norvegicus [6]": {"system": "Rattus norvegicus", "assay": "Tested for the effect on 8-OH-DPAT-induced lower lip retraction (LLR) in rat at dosage of 8 mg/kg", "type": "functional"}, "Rattus norvegicus [7]": {"system": "Rattus norvegicus", "assay": "Tested for the induction of lower lip retraction (LLR) by the investigated compounds in rat at dosage of 16 mg/kg", "type": "functional"}, "Rattus norvegicus [8]": {"system": "Rattus norvegicus", "assay": "Tested for the effect on 8-OH-DPAT-induced behavior in reserpine pretreated rat against flat body posture at dosage of 16 mg/kg", "type": "functional"}, "Rattus norvegicus [9]": {"system": "Rattus norvegicus", "assay": "Tested for the effect on 8-OH-DPAT-induced behavior in reserpine pretreated rat against forepaw treading at dosage of 4 mg/kg", "type": "functional"}, "[10]": {"biological_target": "T1, 5-hydroxytryptamine receptor 1A (Rattus norvegicus, UniProt P19327)", "T1 sequence (P19327 whole entry)": "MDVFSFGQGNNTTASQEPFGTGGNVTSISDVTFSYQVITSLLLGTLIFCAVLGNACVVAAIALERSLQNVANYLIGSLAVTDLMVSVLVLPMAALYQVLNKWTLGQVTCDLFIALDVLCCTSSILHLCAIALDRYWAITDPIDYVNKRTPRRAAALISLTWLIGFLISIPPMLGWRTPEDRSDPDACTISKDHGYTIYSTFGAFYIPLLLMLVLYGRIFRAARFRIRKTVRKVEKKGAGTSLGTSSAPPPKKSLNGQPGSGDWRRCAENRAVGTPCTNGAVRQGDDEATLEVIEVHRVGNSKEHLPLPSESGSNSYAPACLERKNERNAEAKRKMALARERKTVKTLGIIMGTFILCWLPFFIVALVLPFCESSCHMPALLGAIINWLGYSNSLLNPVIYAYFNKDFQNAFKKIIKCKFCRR", "assay": "Tested in vitro for receptor binding affinity against 5-hydroxytryptamine 1A receptor using radioligand [3H]8-OH-DPAT"}, "Mus musculus [11]": {"system": "Mus musculus", "assay": "Effect on body temperature in mice at intraperitoneal dosage of 4 mg/kg, (compound administered 30 min before the test) after 60 min", "type": "functional"}, "Mus musculus [12]": {"system": "Mus musculus", "assay": "Effect on body temperature in mice at intraperitoneal dosage of 8 mg/kg, (compound administered 30 min before the test) after 45 min", "type": "functional"}, "Mus musculus [13]": {"system": "Mus musculus", "assay": "Effect on body temperature in mice at intraperitoneal dosage of 4 mg/kg, (compound administered 30 min before the test) after 75 min", "type": "functional"}, "Mus musculus [14]": {"system": "Mus musculus", "assay": "Effect on body temperature in mice at intraperitoneal dosage of 1 mg/kg, (compound administered 30 min before the test) after 90 min", "type": "functional"}, "Rattus norvegicus [15]": {"system": "Rattus norvegicus", "assay": "Tested for the effect on 8-OH-DPAT-induced lower lip retraction (LLR) in rat at dosage of 4 mg/kg", "type": "functional"}, "Mus musculus [16]": {"system": "Mus musculus", "assay": "Effect on 8-OH-DPAT-induced hypothermia in mice (5 mg/kg) at intraperitoneal dosage of 2 mg/kg of compound after 15 mins", "type": "functional"}, "Mus musculus [17]": {"system": "Mus musculus", "assay": "Effect on body temperature in mice at intraperitoneal dosage of 1 mg/kg, (compound administered 30 min before the test) after 75 min", "type": "functional"}, "Mus musculus [18]": {"system": "Mus musculus", "assay": "Effect on 8-OH-DPAT-induced hypothermia in mice (5 mg/kg) at intraperitoneal dosage of 1 mg/kg of compound after 45 mins", "type": "functional"}, "Mus musculus [19]": {"system": "Mus musculus", "assay": "Effect on body temperature in mice at intraperitoneal dosage of 4 mg/kg, (compound administered 30 min before the test) after 90 min", "type": "functional"}, "Mus musculus [20]": {"system": "Mus musculus", "assay": "Effect on body temperature in mice at intraperitoneal dosage of 1 mg/kg, (compound administered 30 min before the test) after 60 min", "type": "functional"}, "Rattus norvegicus [21]": {"system": "Rattus norvegicus", "assay": "Tested for the induction of lower lip retraction (LLR) by the investigated compounds in rat at dosage of 4 mg/kg", "type": "functional"}, "Mus musculus [22]": {"system": "Mus musculus", "assay": "Effect on 8-OH-DPAT-induced hypothermia in mice (5 mg/kg) at intraperitoneal dosage of 2 mg/kg of compound after 45 mins", "type": "functional"}, "Mus musculus [23]": {"system": "Mus musculus", "assay": "Effect on 8-OH-DPAT-induced hypothermia in mice (5 mg/kg) at intraperitoneal dosage of 4 mg/kg of compound after 30 mins", "type": "functional"}, "Rattus norvegicus [24]": {"system": "Rattus norvegicus", "assay": "Tested for the induction of lower lip retraction (LLR) by the investigated compounds in rat at dosage of 2 mg/kg", "type": "functional"}, "Mus musculus [25]": {"system": "Mus musculus", "assay": "Effect on body temperature in mice at intraperitoneal dosage of 8 mg/kg, (compound administered 30 min before the test) after 90 min", "type": "functional"}, "Mus musculus [26]": {"system": "Mus musculus", "assay": "Effect on body temperature in mice at intraperitoneal dosage of 2 mg/kg, (compound administered 30 min before the test) after 75 min", "type": "functional"}, "Mus musculus [27]": {"system": "Mus musculus", "assay": "Effect on 8-OH-DPAT-induced hypothermia in mice (5 mg/kg) at intraperitoneal dosage of 4 mg/kg of compound after 15 mins", "type": "functional"}, "Mus musculus [28]": {"system": "Mus musculus", "assay": "Effect on body temperature in mice at intraperitoneal dosage of 4 mg/kg, (compound administered 30 min before the test) after 30 min", "type": "functional"}, "Mus musculus [29]": {"system": "Mus musculus", "assay": "Effect on 8-OH-DPAT-induced hypothermia in mice (5 mg/kg) at intraperitoneal dosage of 8 mg/kg of compound after 45 mins", "type": "functional"}, "Mus musculus [30]": {"system": "Mus musculus", "assay": "Effect on 8-OH-DPAT-induced hypothermia in mice (5 mg/kg) at intraperitoneal dosage of 4 mg/kg of compound after 60 mins", "type": "functional"}, "Mus musculus [31]": {"system": "Mus musculus", "assay": "Effect on body temperature in mice at intraperitoneal dosage of 2 mg/kg, (compound administered 30 min before the test) after 30 min", "type": "functional"}, "Rattus norvegicus [32]": {"system": "Rattus norvegicus", "assay": "Tested for the effect on 8-OH-DPAT-induced behavior in reserpine pretreated rat against forepaw treading at dosage of 2 mg/kg", "type": "functional"}, "Rattus norvegicus [33]": {"system": "Rattus norvegicus", "assay": "Tested for the effect on 8-OH-DPAT-induced lower lip retraction (LLR) in rat at dosage of 16 mg/kg", "type": "functional"}, "Mus musculus [34]": {"system": "Mus musculus", "assay": "Effect on 8-OH-DPAT-induced hypothermia in mice (5 mg/kg) at intraperitoneal dosage of 8 mg/kg of compound after 15 mins", "type": "functional"}, "Mus musculus [35]": {"system": "Mus musculus", "assay": "Effect on body temperature in mice at intraperitoneal dosage of 1 mg/kg, (compound administered 30 min before the test) after 30 min", "type": "functional"}, "Rattus norvegicus [36]": {"system": "Rattus norvegicus", "assay": "Tested for the effect on 8-OH-DPAT-induced behavior in reserpine pretreated rat against forepaw treading at dosage of 16 mg/kg", "type": "functional"}, "[37]": {"biological_target": "Serotonin 2 (5-HT2) receptor (Rattus norvegicus, UniProt P30994+P08909+P14842)", "assay": "Tested in vitro for receptor binding affinity against 5-hydroxytryptamine 2 receptor using radioligand [3H]ketanserin", "type": "protein assay"}, "Mus musculus [38]": {"system": "Mus musculus", "assay": "Effect on 8-OH-DPAT-induced hypothermia in mice (5 mg/kg) at intraperitoneal dosage of 1 mg/kg of compound after 60 mins", "type": "functional"}}}
{"smiles": "COc1ccccc1N1CCN(CCCn2nnc3ccccc32)CC1", "values": [{"measurement": "Delta t", "setting": "Mus musculus [1]", "value": 0.6, "unit": "°C"}, {"measurement": "Delta t", "setting": "Mus musculus [2]", "value": 0, "unit": "°C"}, {"measurement": "Delta t", "setting": "Mus musculus [3]", "value": 1.1, "unit": "°C"}, {"measurement": "Delta t", "setting": "Mus musculus [4]", "value": 0.2, "unit": "°C"}, {"measurement": "Delta t", "setting": "Mus musculus [5]", "value": 0.1, "unit": "°C"}, {"measurement": "LLR score", "setting": "Rattus norvegicus [6]", "value": 0.7}, {"measurement": "LLR score", "setting": "Rattus norvegicus [7]", "value": 0.6}, {"measurement": "Behavioral score", "setting": "Rattus norvegicus [8]", "value": 6.1}, {"measurement": "Behavioral score", "setting": "Rattus norvegicus [9]", "value": 5.8}, {"measurement": "Ki", "setting": "[10]", "value": 15, "unit": "nM"}, {"measurement": "Delta t", "setting": "Mus musculus [11]", "value": 0.1, "unit": "°C"}, {"measurement": "Delta t", "setting": "Mus musculus [12]", "value": 0.2, "unit": "°C"}, {"measurement": "Delta t", "setting": "Mus musculus [13]", "value": 0, "unit": "°C"}, {"measurement": "Delta t", "setting": "Mus musculus [14]", "value": 0.1, "unit": "°C"}, {"measurement": "LLR score", "setting": "Rattus norvegicus [15]", "value": 1.1}, {"measurement": "Delta t", "setting": "Mus musculus [16]", "value": 0.4, "unit": "°C"}, {"measurement": "Delta t", "setting": "Mus musculus [17]", "value": 0, "unit": "°C"}, {"measurement": "Delta t", "setting": "Mus musculus [18]", "value": 0.6, "unit": "°C"}, {"measurement": "Delta t", "setting": "Mus musculus [19]", "value": 0.2, "unit": "°C"}, {"measurement": "Delta t", "setting": "Mus musculus [20]", "value": 0.1, "unit": "°C"}, {"measurement": "LLR score", "setting": "Rattus norvegicus [21]", "value": 0}, {"measurement": "Delta t", "setting": "Mus musculus [22]", "value": 0.1, "unit": "°C"}, {"measurement": "Delta t", "setting": "Mus musculus [23]", "value": 0.1, "unit": "°C"}, {"measurement": "LLR score", "setting": "Rattus norvegicus [24]", "value": 0.1}, {"measurement": "Delta t", "setting": "Mus musculus [25]", "value": 0.2, "unit": "°C"}, {"measurement": "Delta t", "setting": "Mus musculus [26]", "value": 0.2, "unit": "°C"}, {"measurement": "Delta t", "setting": "Mus musculus [27]", "value": 0.3, "unit": "°C"}, {"measurement": "Delta t", "setting": "Mus musculus [28]", "value": 0.4, "unit": "°C"}, {"measurement": "Delta t", "setting": "Mus musculus [29]", "value": 0.7, "unit": "°C"}, {"measurement": "Delta t", "setting": "Mus musculus [30]", "value": 0.1, "unit": "°C"}, {"measurement": "Delta t", "setting": "Mus musculus [31]", "value": 0.3, "unit": "°C"}, {"measurement": "Behavioral score", "setting": "Rattus norvegicus [32]", "value": 13.4}, {"measurement": "LLR score", "setting": "Rattus norvegicus [33]", "value": 0.9}, {"measurement": "Delta t", "setting": "Mus musculus [34]", "value": 0.3, "unit": "°C"}, {"measurement": "Delta t", "setting": "Mus musculus [35]", "value": 0, "unit": "°C"}, {"measurement": "Behavioral score", "setting": "Rattus norvegicus [36]", "value": 2.6}, {"measurement": "Ki", "setting": "[37]", "value": 1040, "unit": "nM"}, {"measurement": "Delta t", "setting": "Mus musculus [38]", "value": 0.3, "unit": "°C"}]}
